According to ChEMBL document CHEMBL1128683, “Identification of 3,5-dihydro-2-aryl-1H-pyrazolo[3,4-c]quinoline-1,4(2H)-diones as novel high-affinity glycine site N-methyl-D-aspartate antagonists” (J Med Chem, 1995):

Target: Glutamate receptor ionotropic, NMDA 1 (Rattus norvegicus, UniProt P35439)
Experiment: Inhibition of [3H]-3 binding to the glycine site on the NMDA receptor in Rat cortical membranes

| IC50 [nM] | Structure (SMILES) |
| --- | --- |
| 613 | O=c1[nH]c2ccccc2c2c(=O)n(-c3ccccc3Cl)[nH]c12 |
| 3.3 | COc1ccc(-n2[nH]c3c(=O)[nH]c4cc(Cl)ccc4c3c2=O)cc1 |
| 562 | O=c1[nH]c2ccccc2c2c(=O)n(Cc3ccccc3)[nH]c12 |
| 135 | O=c1[nH]c2ccccc2c2c(=O)n(-c3ccccc3)[nH]c12 |
| 162 | O=c1[nH]c2ccccc2c2c(=O)n(-c3cccc(Cl)c3)[nH]c12 |
| 2020 | Cn1[nH]c2c(=O)[nH]c3ccccc3c2c1=O |
| 87 | COc1ccc(-n2[nH]c3c(=O)[nH]c4ccccc4c3c2=O)cc1 |

| Structure (SMILES) | IC50 [nM] |
| --- | --- |
| O=c1[nH]c2ccccc2c2c(=O)n(-c3ccc(Cl)cc3)[nH]c12 | 138 |
| O=c1[nH]c2cc(Cl)ccc2c2c(=O)n(-c3ccccc3)[nH]c12 | 16 |
| Cn1c2c(=O)[nH]c3ccccc3c2c(=O)n1-c1ccccc1 | > 100 |
